Experimental findings from ChEMBL document CHEMBL3351305, “Structure-based design of a novel series of azetidine inhibitors of the hepatitis C virus NS3/4A serine protease” (Bioorg Med Chem Lett, 2014) are described below.

The term pIC50 denotes −log10 of the IC50, conventionally taken in molar units. The pEC50 is the EC50 on a negative log10 scale, so that one unit is a factor of ten. Usually half-life stands for the time in which the quantity being followed falls by half.

pEC50, pIC50: −log10 of the molar value. Active and inactive are the calls of the source. No cut-off for these calls is given here.

Data set [1] has as its target Hepatitis C virus serine protease, NS3/NS4A (Hepatitis C virus, UniProt A3EZI9+D2K2A8). As to the kind of experiment: Inhibition of full length Hepatitis C virus genotype 1b Con1 NS3/4A by FRET assay. More on the design: species or system Hepatitis C virus (isolate Con1).
The test system of another data set is Hepatitis C virus. In words: Antiviral activity against Hepatitis C virus genotype 1b Con1 infected in human Huh7 cells assessed as inhibition of NS4A expression by ELISA. Format: functional, cell-based, Hepacivirus hominis. To be noted: genotype 1b Con1, Huh-7.
Data set [2] deals with Hepatitis C virus serine protease, NS3/NS4A (Hepatitis C virus), D2K2A8+A3EZI9 [A156S]. In words: Inhibition of Hepatitis C virus genotype 1b Con1 NS3/4A A156S mutant by FRET assay. As to conditions: Hepatitis C virus (isolate Con1).
Data set [3] in a line: Half life in rat liver microsomes. Format: ADME. For orientation: Liver microsomes are a subcellular fraction often used to study metabolism.
Data set [4] can be described thus: Half life in human liver microsomes. In kind it is ADME.
A short description of data set [5]: Clearance in rat liver microsomes assessed per mg protein. As to conditions: read-out: CLH. Format: ADME.
A short description of data set [6]: Clearance in human liver microsomes assessed per mg protein. In kind it is ADME. To be noted: read-out: CLH.
Data set [7] can be described thus: Half life in cynomolgus monkey liver microsomes. Format: ADME, Macaca fascicularis.
A short description of data set [8]: Clearance in cynomolgus monkey liver microsomes assessed per mg protein. In kind it is ADME, Macaca fascicularis. To be noted: read-out: CLH.
Data set [9] is described as follows: Inhibition of human leukocyte elastase.
Data set [10] is described as follows: Selectivity index, ratio of CC50 for human Huh7 cells to EC50 for Hepatitis C virus genotype 1b Con1. Format: toxicity, cell-based, Huh-7. To be noted: read-out: Ratio CC50/EC50.

Sequence of Hepatitis C virus serine protease, NS3/NS4A (D2K2A8 whole entry): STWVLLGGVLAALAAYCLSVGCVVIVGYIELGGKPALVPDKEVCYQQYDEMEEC
Sequence of Hepatitis C virus serine protease, NS3/NS4A (A3EZI9 whole entry): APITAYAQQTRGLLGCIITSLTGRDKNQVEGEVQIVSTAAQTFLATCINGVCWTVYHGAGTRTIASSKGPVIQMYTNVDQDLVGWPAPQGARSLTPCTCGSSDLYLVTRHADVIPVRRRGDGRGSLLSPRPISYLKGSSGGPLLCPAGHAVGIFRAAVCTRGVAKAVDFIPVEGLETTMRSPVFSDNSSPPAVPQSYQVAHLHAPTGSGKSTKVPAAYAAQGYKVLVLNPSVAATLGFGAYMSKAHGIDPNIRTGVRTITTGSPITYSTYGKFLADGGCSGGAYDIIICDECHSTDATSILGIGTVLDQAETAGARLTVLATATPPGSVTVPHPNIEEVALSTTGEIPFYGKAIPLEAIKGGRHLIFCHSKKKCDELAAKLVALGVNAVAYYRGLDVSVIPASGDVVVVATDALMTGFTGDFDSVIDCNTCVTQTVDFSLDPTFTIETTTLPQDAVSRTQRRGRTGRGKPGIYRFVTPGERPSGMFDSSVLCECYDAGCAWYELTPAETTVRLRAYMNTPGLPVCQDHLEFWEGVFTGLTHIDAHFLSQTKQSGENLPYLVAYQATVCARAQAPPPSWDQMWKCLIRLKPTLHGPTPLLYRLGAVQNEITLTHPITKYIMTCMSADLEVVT

Take `COc1ccc2c(OC[C@@H]3C[C@H]4C(=O)N(C)CCCC/C=C\[C@H]5C[C@]5(C(=O)NS(=O)(=O)C5(C)CC5)NC(=O)N34)cc(-c3nc(C(C)C)cs3)nc2c1F`: the pIC50 in data set [1] is 7.77. Besides, the pEC50 with Hepatitis C virus is 6.06. For the same molecule, in data set [2], the inhibition entry was “inactive”.
Take `COc1ccc2c(OC[C@@H]3C[C@H]4C(=O)N(C)CCCC/C=C\[C@H]5C[C@]5(C(=O)NS(=O)(=O)C5CC5)NC(=O)N34)cc(-c3nc(C(C)C)cs3)nc2c1C`: the pIC50 in data set [1] was more than 6.00. For the same molecule, the pEC50 in the data set with Hepatitis C virus is more than 6.12.
`COc1ccc2c(OC[C@@H]3C[C@H]4C(=O)N(C)CCCC/C=C\[C@H]5C[C@]5(C(=O)NS(=O)(=O)C5(C)CC5)NC(=O)N34)cc(-c3nc(C(C)C)cs3)nc2c1C` gave a pIC50 in data set [1] of 8.18. Further, the half-life in data set [3], in data set [4] and in data set [7] was less than 10 min each time. Also, the pEC50 in the data set on Hepatitis C virus was 7.35. The microsomal CLint in data set [5], in [6] and in data set [8] was more than 150 µL/min/mg each time.
Molecule `COc1ccc2c(OC[C@H]3C[C@@H]4C(=O)N[C@@]5(C(=O)NS(=O)(=O)C6CC6)C[C@@H]5/C=C\CCCCN(C)C(=O)N34)cc(-c3ccccc3)nc2c1` had a pIC50 in data set [1] of 6.56.
For the molecule `COc1ccc2c(OC[C@@H]3C[C@H]4C(=O)N(C)CCCC/C=C\[C@H]5C[C@]5(C(=O)NS(=O)(=O)C5(C)CC5)NC(=O)N34)cc(-c3nc(C(C)C)cs3)nc2c1`, the pIC50 in data set [1] is 8.89. Besides, in the data set with Hepatitis C virus, the pEC50 was 6.38.
In the case of `COc1ccc2c(OC[C@@H]3C[C@H]4C(=O)N(C)CCCC/C=C\[C@H]5C[C@]5(C(=O)NS(=O)(=O)C5CC5)NC(=O)N34)cc(-c3ccccc3)nc2c1`, the pIC50 in data set [1] was 7.35. Moreover, the pEC50 in the data set on Hepatitis C virus was 5.73.
Molecule `COc1ccc2c(O[C@@H]3C[C@H]4C(=O)N[C@]5(C(=O)O)C[C@H]5/C=C\CCCCC[C@H](NC(=O)OC5CCCC5)C(=O)N4C3)cc(-c3csc(NC(C)C)n3)nc2c1` [CILUPREVIR] gave a pIC50 in [1] of 9.10. In the data set with Hepatitis C virus, the pEC50 is 8.55.
Regarding `COc1ccc2c(OC[C@H]3C[C@@H]4C(=O)N(C)CCCC/C=C\[C@H]5C[C@]5(C(=O)NS(=O)(=O)C5CC5)NC(=O)N34)cc(-c3ccccc3)nc2c1`, in data set [1], the pIC50 was 8.46. In addition, the negative-log EC50 (pEC50) in the data set on Hepatitis C virus is 6.62.
`CCC[C@H](NC(=O)[C@@H]1[C@H]2CCC[C@H]2CN1C(=O)[C@@H](NC(=O)[C@@H](NC(=O)c1cnccn1)C1CCCCC1)C(C)(C)C)C(=O)C(=O)NC1CC1` [TELAPREVIR]: the inhibition result in [2] is “inactive”. Besides, in [9], the pIC50 is 6.22.
Turning to `COc1ccc2c(OC[C@@H]3C[C@H]4C(=O)N(C)CCCC/C=C\[C@H]5C[C@]5(C(=O)NS(=O)(=O)C5CC5)NC(=O)N34)cc(-c3nc(C(C)C)cs3)nc2c1Cl`, the pIC50 in data set [1] is more than 6.00. Moreover, the pEC50 in the data set with Hepatitis C virus is more than 6.12.
As to `CC(C)(C)NC(=O)N[C@H](C(=O)N1C[C@H]2[C@@H]([C@H]1C(=O)NC(CC1CCC1)C(=O)C(N)=O)C2(C)C)C(C)(C)C` (some centres not stated), the inhibition entry in data set [2] is “inactive”.
On to `COc1ccc2c(OC[C@@H]3C[C@H]4C(=O)N[C@@]5(C(=O)NS(=O)(=O)C6CC6)C[C@@H]5/C=C\CCCCN(C)C(=O)N34)cc(-c3ccccc3)nc2c1`, for which the pIC50 in [1] was 5.62.
Turning to `COc1ccc2c(OC[C@@H]3C[C@H]4C(=O)N(C)CCCC/C=C\[C@H]5C[C@]5(C(=O)NS(=O)(=O)C5(C)CC5)NC(=O)N34)cc(-c3nc(C(C)C)cs3)nc2c1Cl`, the pIC50 in [1] is 8.68. In addition, the half-life in [3], in data set [4] and in [7] was less than 10 min in each case. Further, the pEC50 in the data set with Hepatitis C virus is 7.22. In addition, the microsomal CLint in data set [5], in data set [6] and in data set [8] was more than 150 µL/min/mg in each case. For the same molecule, the selectivity ratio in data set [10] was more than 1500.
